In one assay the target is T1, Axl (Homo sapiens, UniProt P30530).
T1 construct: purchased Life Technologies
T1 sequence (P30530 26-894): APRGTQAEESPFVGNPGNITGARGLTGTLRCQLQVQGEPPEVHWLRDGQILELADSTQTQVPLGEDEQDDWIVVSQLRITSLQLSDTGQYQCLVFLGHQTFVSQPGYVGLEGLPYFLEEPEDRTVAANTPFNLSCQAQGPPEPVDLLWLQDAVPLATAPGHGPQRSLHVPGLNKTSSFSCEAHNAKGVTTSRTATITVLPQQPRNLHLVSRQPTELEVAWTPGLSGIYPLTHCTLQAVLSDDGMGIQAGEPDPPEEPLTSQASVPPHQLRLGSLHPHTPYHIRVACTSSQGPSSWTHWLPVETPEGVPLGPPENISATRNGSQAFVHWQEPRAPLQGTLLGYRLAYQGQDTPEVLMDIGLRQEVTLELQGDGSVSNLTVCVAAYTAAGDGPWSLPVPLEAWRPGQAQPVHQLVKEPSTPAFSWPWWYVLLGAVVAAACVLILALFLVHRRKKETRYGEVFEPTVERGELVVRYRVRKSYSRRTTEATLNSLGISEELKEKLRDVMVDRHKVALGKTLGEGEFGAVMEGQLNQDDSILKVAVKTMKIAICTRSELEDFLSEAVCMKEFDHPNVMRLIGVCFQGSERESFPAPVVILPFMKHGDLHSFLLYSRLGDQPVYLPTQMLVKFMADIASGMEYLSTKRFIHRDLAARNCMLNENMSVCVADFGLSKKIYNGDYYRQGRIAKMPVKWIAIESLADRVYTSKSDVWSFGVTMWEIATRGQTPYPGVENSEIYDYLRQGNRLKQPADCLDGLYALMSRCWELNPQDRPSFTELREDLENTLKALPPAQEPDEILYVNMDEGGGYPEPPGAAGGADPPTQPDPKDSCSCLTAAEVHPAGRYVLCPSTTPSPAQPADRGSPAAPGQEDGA
In words: LanthaScreen Eu kinase binding assay, Axl. As to conditions: Tracer 236.

The target in another assay is T2, TYRO3 (Homo sapiens, UniProt Q06418).
T2 construct: purchased Life Technologies
T2 sequence (Q06418 41-890): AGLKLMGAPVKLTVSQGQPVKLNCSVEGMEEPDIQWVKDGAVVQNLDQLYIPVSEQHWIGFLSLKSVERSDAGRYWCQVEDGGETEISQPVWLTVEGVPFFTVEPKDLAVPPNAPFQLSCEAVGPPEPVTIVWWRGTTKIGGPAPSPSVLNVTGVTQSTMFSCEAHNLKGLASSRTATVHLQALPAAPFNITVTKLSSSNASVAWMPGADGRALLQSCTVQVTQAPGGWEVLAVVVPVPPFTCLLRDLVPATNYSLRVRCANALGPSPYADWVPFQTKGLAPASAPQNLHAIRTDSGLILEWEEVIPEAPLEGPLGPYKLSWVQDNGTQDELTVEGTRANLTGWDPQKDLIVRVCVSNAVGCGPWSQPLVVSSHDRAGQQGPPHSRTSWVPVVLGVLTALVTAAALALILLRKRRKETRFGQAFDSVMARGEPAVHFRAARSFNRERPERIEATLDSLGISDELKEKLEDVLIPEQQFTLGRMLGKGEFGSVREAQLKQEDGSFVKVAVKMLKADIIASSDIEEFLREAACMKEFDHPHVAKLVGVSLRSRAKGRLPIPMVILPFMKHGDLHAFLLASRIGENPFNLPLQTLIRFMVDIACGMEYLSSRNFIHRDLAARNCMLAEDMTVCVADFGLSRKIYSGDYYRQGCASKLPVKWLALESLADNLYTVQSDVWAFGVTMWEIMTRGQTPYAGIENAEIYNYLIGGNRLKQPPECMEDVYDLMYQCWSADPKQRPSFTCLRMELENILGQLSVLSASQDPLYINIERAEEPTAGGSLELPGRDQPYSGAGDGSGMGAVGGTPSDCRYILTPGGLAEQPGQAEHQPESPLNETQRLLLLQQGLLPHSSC
Description: LanthaScreen Eu kinase binding assay, TYRO3. The following applies: Tracer 236.

A further assay has as its target T3, Met (Homo sapiens, UniProt P08581).
T3 construct: purchased Life Technologies
Description: LanthaScreen Eu kinase binding assay, Met. The following applies: Tracer 236, read-out: cMet kinase binding activity (Kd). (Time-resolved FRET reads energy transfer from a long-lived donor to a nearby acceptor.)

The next assay concerns HCC827/ER cells. Description: WST-1 cell viability assay in erlotinib-resistant cells. The following applies: compound combined with Erlotinib at constant 1:1 ratio, 3 days, FBS 1%. Background: Tetrazolium dyes change colour on reduction, which living cells bring about.

Bounds are passed on as bounds.

T3 sequence (P08581 25-1390): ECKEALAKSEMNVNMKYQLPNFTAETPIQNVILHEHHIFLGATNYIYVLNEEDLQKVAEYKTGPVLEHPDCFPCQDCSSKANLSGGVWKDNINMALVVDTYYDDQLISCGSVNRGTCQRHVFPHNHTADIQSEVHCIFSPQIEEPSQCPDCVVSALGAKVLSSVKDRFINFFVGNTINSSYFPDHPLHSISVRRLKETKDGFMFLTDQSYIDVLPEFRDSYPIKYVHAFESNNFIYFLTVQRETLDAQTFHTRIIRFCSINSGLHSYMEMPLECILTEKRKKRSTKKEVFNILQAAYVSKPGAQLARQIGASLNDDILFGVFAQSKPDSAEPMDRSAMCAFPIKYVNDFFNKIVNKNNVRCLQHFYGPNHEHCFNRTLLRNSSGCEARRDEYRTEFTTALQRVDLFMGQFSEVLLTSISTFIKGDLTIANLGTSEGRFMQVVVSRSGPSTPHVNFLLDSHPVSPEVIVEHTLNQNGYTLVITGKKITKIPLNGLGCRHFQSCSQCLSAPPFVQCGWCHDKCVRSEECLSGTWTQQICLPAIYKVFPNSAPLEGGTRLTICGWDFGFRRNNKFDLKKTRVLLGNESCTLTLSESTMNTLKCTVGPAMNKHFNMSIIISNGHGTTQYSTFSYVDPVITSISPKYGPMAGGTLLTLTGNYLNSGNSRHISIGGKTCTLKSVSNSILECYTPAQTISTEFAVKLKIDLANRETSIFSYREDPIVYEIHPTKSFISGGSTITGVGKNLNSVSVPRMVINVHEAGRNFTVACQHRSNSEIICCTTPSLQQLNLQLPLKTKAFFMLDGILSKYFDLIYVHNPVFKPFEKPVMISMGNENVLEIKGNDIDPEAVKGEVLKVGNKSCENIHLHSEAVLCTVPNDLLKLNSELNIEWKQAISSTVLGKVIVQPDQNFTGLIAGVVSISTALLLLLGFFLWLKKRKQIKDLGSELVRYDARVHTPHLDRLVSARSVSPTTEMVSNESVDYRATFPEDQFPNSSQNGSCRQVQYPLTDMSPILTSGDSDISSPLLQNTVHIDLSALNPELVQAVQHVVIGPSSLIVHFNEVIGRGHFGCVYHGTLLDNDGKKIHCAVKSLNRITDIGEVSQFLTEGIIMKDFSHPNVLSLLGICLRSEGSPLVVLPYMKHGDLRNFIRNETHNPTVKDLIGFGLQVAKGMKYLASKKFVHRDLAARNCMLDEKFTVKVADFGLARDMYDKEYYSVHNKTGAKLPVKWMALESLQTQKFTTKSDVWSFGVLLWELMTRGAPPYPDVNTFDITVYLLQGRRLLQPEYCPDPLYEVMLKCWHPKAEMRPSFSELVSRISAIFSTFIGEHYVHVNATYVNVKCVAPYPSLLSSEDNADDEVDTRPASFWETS
Description for HCC827/ER cells: The killed cells were discarded and the remaining cells were cultured in a drug-free medium up to 80% confluence. Subsequently, cells were continuously exposed to increasing drug doses of up to 10 μM over a period of 8 months.
HCC827/ER cells were seeded in a 96-well plate with their respective media containing 10% FBS at 5000 cells/well. After seeding, the HCC827/ER cells were incubated for approximately 24 hours. […] The viability of the HCC827/ER cells was determined by adding WST-1 reagent according to Manufacturer's instructions (DoGenbio co., Ltd) and incubating for four hours. The plates were then read using an absorbance of 440 nm on Tecan Microplate reader (Infinite M200 pro, TECAN). The HCC827/ER cells' viability were calculated relative to vehicle (DMSO) control wells.

Consider `CCOc1cn(-c2ccc(F)cc2C)nc1C(=O)Nc1ccc(Oc2ccnc3cc(OC)c(OC)cc23)c(Cl)c1` [Compound 82], for which the Kd at Axl, at TYRO3 and on Met was below 100 nM each time.
Turning to `CCOc1cn(C2CCCC2)nc1C(=O)Nc1ccc(Oc2ccnc3cc(OC)c(OC)cc23)cn1` [Compound 3], the dissociation constant Kd on Axl, at TYRO3 and at Met was below 100 nM in each case.
For the compound `CCOc1cn(-c2cccnn2)nc1C(=O)Nc1ccc(Oc2ccnc3cc(OC)c(OC)cc23)cn1` [Compound 5], the Kd on Axl, on TYRO3 and on Met was below 100 nM each time.
Regarding `CCOc1cn(-c2ccc(F)cc2)nc1C(=O)Nc1ccc(Oc2ccnc3cc(OC)c(OC)cc23)cn1` [Compound 89], the Kd at Axl, at TYRO3 and at Met was below 100 nM in each case.
On to `CCOc1cn(-c2cnccc2C)nc1C(=O)Nc1ccc(Oc2ccnc3cc(OC)c(OC)cc23)cn1` [Compound 79], for which the Kd on Axl, at TYRO3 and at Met was below 100 nM each time. In addition, the “Combination effect of compound and erlotinib on inhibition activity in Erlotinib-resistant cell-line” value in the assay with HCC827/ER cells was “synergistic effect”.
Turning to `CCOc1cn(-c2ccccn2)nc1C(=O)Nc1ccc(Oc2ccnc3cc(OC)c(OC)cc23)cn1` [Compound 4], the Kd – broadly, a measure of binding affinity in units of concentration – is below 100 nM on Axl, 100 to 1000 nM at TYRO3 and below 100 nM on Met.
On to `CCOc1cn(C(C)CC#N)nc1C(=O)Nc1ccc(Oc2ccnc3cc(OC)c(OC)cc23)cn1` (stereo not shown) [Compound 81], for which the Kd at Axl was below 100 nM; at TYRO3 it was 100 to 1000 nM; at Met it was 100 to 1000 nM.
For the compound `CCOc1cn(CCC#N)nc1C(=O)Nc1ccc(Oc2ccnc3cc(OC)c(OC)cc23)cn1` [Compound 80], the values for the Kd on Axl, at TYRO3 and at Met were below 100 nM, 100 to 1000 nM and 100 to 1000 nM, respectively.
For `CCOc1cn(-c2ccc(Cl)cc2C)nc1C(=O)Nc1ccc(Oc2ccnc3cc(OC)c(OC)cc23)cn1` [Compound 87], the Kd on Axl, on TYRO3 and on Met was below 100 nM throughout.
Turning to `CCOc1cn(-c2cccnc2)nc1C(=O)Nc1ccc(Oc2ccnc3cc(OC)c(OC)cc23)cc1F` [Compound 85], the Kd was below 100 nM on Axl, 100 to 1000 nM on TYRO3 and below 100 nM on Met.
`CCOc1cn(CCOC(F)F)nc1C(=O)Nc1ccc(Oc2ccnc3cc(OC)c(OC)cc23)cn1` [Compound 86]: the results for the dissociation constant Kd at Axl, on TYRO3 and at Met were below 100 nM, 100 to 1000 nM and below 100 nM, respectively.
In the case of `CCOc1cn(C2CCOC2)nc1C(=O)Nc1ccc(Oc2ccnc3cc(OC)c(OC)cc23)cn1` (stereo not shown) [Compound 76], the dissociation constant (Kd) at Axl was below 100 nM; at TYRO3, below 100 nM; on Met, 100 to 1000 nM.
With `CCOc1cn(-c2c(C)cc(OC)cc2C)nc1C(=O)Nc1ccc(Oc2ccnc3cc(OC)c(OC)cc23)cn1` [Compound 92], the Kd at Axl, at TYRO3 and on Met was below 100 nM in each case.
Regarding `CCOc1cn(-c2ncc(N)cn2)nc1C(=O)Nc1ccc(Oc2ccnc3cc(OC)c(OC)cc23)cn1` [Compound 93], the Kd on Axl was below 100 nM; at TYRO3, 100 to 1000 nM; at Met, below 100 nM.

The values above are taken from patent US10934274B2, “Quinoline derivatives as TAM RTK inhibitors” (Qurient Co., Ltd., priority 2015, dated 2021).
